Where two headings read alike, the source gives them in different places.
Experiments:
Assay in all cases: MTT assay (anti-proliferative activity)
Format in all cases: cell-based
MDA-MB-468 = details: read-out: IC 50 MDA-MB-468
Method: (§1) The MTT assay was used initially to determine the anti-proliferative activity of the test compounds. In the MTT assay a yellow thiazolyl blue tetrazolium bromide salt (MTT) is reduced, in metabolically active cells, to form insoluble purple formazan crystals which are solubilised by the addition of dimethyl sulphoxide (DMSO).
(§2) Wells containing medium only were used as blanks. Following the attachment period, cells were treated with appropriate drug concentrations (20 μl added per well). 40 mg/ml stock drug solutions, in DMSO, were stored at −20° C. and on the day of drug treatment working solutions of 4 mg/ml were prepared in medium which was further diluted to achieve final drug dilution volumes of 20 μl. Initial screening was determined over a concentration range of 1-200 μg/ml. […] Cells were exposed to drug for 96 h continual exposure (37° C., 5% CO2). Following the 96 h incubation, 50 μl MTT solution (1 g MTT/500 ml PBS) was added per well and the plates were further incubated for 4 h (37° C., 5% CO2). After incubation the MTT and medium was removed from the wells and 100 μl DMSO added per well. Plates were agitated on an orbital mixer platform (Stuart Scientific) for 10 minutes. Absorbance was measured at 570 nm on a Biotrak II (Amersham Bioscience) plate reader. IC50 values were calculated comparing control and drug treated cells.

MalMe3M = details: 96 h continual exposure, read-out: IC 50 MalMe3M
Method: as §1, §2

SkMel28 = details: read-out: IC 50 SkMel28
Method: as §1, §2

MCF-7 = details: read-out: IC 50 MCF-7
Method: as §1, §2

[1] = Homo sapiens, MDA-MB-468, 96 h continual exposure
[2] = Homo sapiens, SK-MEL-28, 96 h continual exposure
[3] = Homo sapiens, MCF7, 96 h continual exposure

| IC50 (MDA-MB-468; 96 h continual exposure) | IC50 (MCF-7; 96 h continual exposure) | IC50 (MDA-MB-468; [1]) | IC50 (MCF-7; [3]) | Structure (SMILES) | IC50 (MalMe3M) | IC50 (SkMel28; 96 h continual exposure) | IC50 (MalMe3M; Homo sapiens, Malme-3M) | IC50 (SkMel28; [2]) |
| --- | --- | --- | --- | --- | --- | --- | --- | --- |
| 113 µM | – | – | – | CC(C)CC(NC(=O)c1ccc2c(c1O)C(=O)OC(C)C2)C(=O)O (mixture of isomers) [ALM-56, Leucine Amide] | 486 µM | > 596 µM | – | – |
| 118 µM | 197 µM | – | – | CC1Cc2ccc(C(=O)NC(C(=O)O)c3ccccc3)c(O)c2C(=O)O1 (mixture of isomers) [ALM-64] | > 562 µM | > 562 µM | – | – |
| > 570 µM | > 570 µM | – | – | CC1Cc2ccc(C(=O)NC(CCCCN)C(=O)O)c(O)c2C(=O)O1 (mixture of isomers) [ALM-67] | > 570 µM | > 570 µM | – | – |
| – | – | 306 µM | 630 µM | COc1cc2c(c(O)c1OC)C(=O)OC(C)C2 (racemic) [ALM-1, Racemic (±)—Kigelin] | – | – | 714 µM | 718 µM |
| 90.2 µM | 60.2 µM | – | – | CC/C=C\C/C=C\C/C=C\CCCCCCCC(=O)Oc1c(OC)c(OC)cc2c1C(=O)OC(C)C2 (racemic) [ALM-4, Racemic Kigelin α-Linolenyl Ester] | 321 µM | > 401 µM | – | – |
| 50.1 µM | 20 µM | – | – | CCCCC/C=C\C/C=C\C/C=C\CCCCC(=O)Oc1c(OC)c(OC)cc2c1C(=O)OC(C)C2 (racemic) [ALM-5, Racemic Kigelin γ-Linolenyl Ester] | 150 µM | > 401 µM | – | – |
| – | – | 486 µM | 432 µM | COc1cc2c(c(OC)c1)C(=O)OC(C)C2 (racemic) [ALM-7, 6,8-Dimethoxy-3-methyl-isochroman-1-one] | – | – | 626 µM | > 900 µM |
| – | – | 583 µM | > 1040 µM | COc1cccc2c1C(=O)OC(C)C2 (racemic) [ALM-12, Racemic Mellein Methyl Ether] | – | – | > 1040 µM | > 1040 µM |
| 240 µM | 296 µM | – | – | CCOC(=O)Oc1cccc2c1C(=O)OC(C)C2 (racemic) [ALM-16, Racemic Mellein Ethyl Carbonate] | 456 µM | 360 µM | – | – |
| > 453 µM | > 453 µM | – | – | CCCCC/C=C\C/C=C\CCCCCCCC(=O)Oc1cccc2c1C(=O)OC(C)C2 (racemic) [ALM-18, Racemic Mellein Linoleyl Ester] | > 453 µM | > 453 µM | – | – |
| > 455 µM | 342 µM | – | – | CCCCC/C=C\C/C=C\C/C=C\CCCCC(=O)Oc1cccc2c1C(=O)OC(C)C2 (racemic) [ALM-20, Racemic Mellein γ-Linolenyl Ester] | > 455 µM | > 455 µM | – | – |
| 469 µM | > 1020 µM | – | – | CC1Cc2c(F)ccc(O)c2C(=O)O1 (racemic) [ALM-23, Racemic Para-Fluoromellein] | > 1020 µM | > 1020 µM | – | – |
| – | – | 171 µM | 261 µM | CC1Cc2c(Br)ccc(O)c2C(=O)O1 (racemic) [ALM-24] | – | – | 249 µM | 296 µM |
| – | – | 263 µM | 329 µM | CC1Cc2c(I)ccc(O)c2C(=O)O1 (racemic) [ALM-26, Racemic Para-Iodomellein] | – | – | 168 µM | – |
| – | – | 48.8 µM | 116 µM | CC1Cc2c(I)cc(I)c(O)c2C(=O)O1 (racemic) [ALM-27, Racemic 2,4-di-iodomellein] | – | – | 109 µM | 76.8 µM |
| – | – | 211 µM | 594 µM | COc1ccc(I)c2c1C(=O)OC(C)C2 (racemic) [ALM-28] | – | – | 484 µM | 283 µM |
| – | – | 360 µM | > 847 µM | COC(=O)c1ccc2c(c1O)C(=O)OC(C)C2 (racemic) [ALM-34, 8-Hydroxy-3-methyl-1-oxo-isochroman-7-carboxylic acid methyl ester] | – | – | > 847 µM | > 847 µM |
| 99.3 µM | – | – | – | CC1Cc2ccc(C(=O)OCc3ccccc3)c(O)c2C(=O)O1 (racemic) [ALM-36, Benzyl Ester] | 106 µM | 176 µM | – | – |
| 41.8 µM | 86.7 µM | – | – | CC1Cc2ccc(C(=O)NCc3ccccc3)c(O)c2C(=O)O1 (racemic) [ALM-44, Benzyl Amide] | 128 µM | 270 µM | – | – |

Continued, molecule first:

| Structure (SMILES) | IC50 (MDA-MB-468; 96 h continual exposure) | IC50 (MCF-7; 96 h continual exposure) | IC50 (MDA-MB-468; [1]) | IC50 (MCF-7; [3]) | IC50 (MalMe3M) | IC50 (SkMel28; 96 h continual exposure) | IC50 (MalMe3M; Homo sapiens, Malme-3M) | IC50 (SkMel28; [2]) |
| --- | --- | --- | --- | --- | --- | --- | --- | --- |
| CC1Cc2ccc(C(=O)NCCC(=O)O)c(O)c2C(=O)O1 (racemic) | 222 µM | 136 µM | – | – | 290 µM | > 681 µM | – | – |
| CCCCC/C=C\C/C=C\CCCCCCCC(=O)Oc1c(OC)c(OC)cc2c1C(=O)OC(C)C2 (racemic) [ALM-3, Racemic Kigelin Linoleyl Ester] | 99.9 µM | 150 µM | – | – | > 399 µM | > 399 µM | – | – |
| COc1cc(O)c2c(c1)CC(C)OC2=O (racemic) [ALM-8, 8-Hydroxy-6-methoxy-3-methylisochroman-1-one] | – | – | 428 µM | 428 µM | – | – | 663 µM | 725 µM |
| CC(=O)Oc1cccc2c1C(=O)OC(C)C2 (racemic) [ALM-15, Acetyl rac-Mellein] | 345 µM | 613 µM | – | – | 613 µM | 622 µM | – | – |
| CC/C=C\C/C=C\C/C=C\CCCCCCCC(=O)Oc1cccc2c1C(=O)OC(C)C2 (racemic) [ALM-19, Racemic Mellein α-Linolenyl Ester] | > 455 µM | > 455 µM | – | – | > 455 µM | > 455 µM | – | – |
| CC(=O)c1ccc2c(c1O)C(=O)OC(C)C2 (racemic) [ALM-29, Racemic ortho-acetylmellein] | – | – | 341 µM | 341 µM | – | – | 341 µM | 363 µM |
| CC1Cc2c([N+](=O)[O-])cc([N+](=O)[O-])c(O)c2C(=O)O1 (racemic) [ALM-30, Racemic 2,4-dinitromellein] | – | – | 138 µM | 130 µM | – | – | 142 µM | 179 µM |
| CC1Cc2ccc(C(=O)O)c(O)c2C(=O)O1 (racemic) [ALM-33, 8-Hydroxy-3-methyl-1-oxo-isochroman-7-carboxylic acid] | – | – | 585 µM | > 900 µM | – | – | > 900 µM | > 900 µM |
| CC1Cc2ccc(C(=O)Oc3ccccc3)c(O)c2C(=O)O1 (racemic) [ALM-37, Phenyl Ester] | 181 µM | 285 µM | – | – | 308 µM | 332 µM | – | – |
| CC1Cc2ccc(C(=O)OC3CCCCC3)c(O)c2C(=O)O1 (racemic) [ALM-38, Cyclohexyl Ester] | 131 µM | 98.6 µM | – | – | 131 µM | 131 µM | – | – |
| CC1Cc2ccc(C(=O)OC(C)(C)C)c(O)c2C(=O)O1 (racemic) [ALM-39, Tert-Butyl Ester] | 305 µM | 392 µM | – | – | 345 µM | 359 µM | – | – |
| CCCCCCOC(=O)c1ccc2c(c1O)C(=O)OC(C)C2 (racemic) [ALM-40, Hexyl Ester] | 42.4 µM | 65.3 µM | – | – | 114 µM | 163 µM | – | – |
| CCCCCCCCCCCCOC(=O)c1ccc2c(c1O)C(=O)OC(C)C2 (racemic) [ALM-41, Dodecyl Ester] | 166 µM | 192 µM | – | – | 333 µM | 256 µM | – | – |
| CCCCCCCC/C=C\CCCCCCCCOC(=O)c1ccc2c(c1O)C(=O)OC(C)C2 (racemic) [ALM-42, Oleyl Ester] | 317 µM | > 423 µM | – | – | > 423 µM | > 423 µM | – | – |
